Values of other authors, collected in patent US20090131395A1, “BIPHENYLAZETIDINONE CHOLESTEROL ABSORPTION INHIBITORS” (MICROBIA, INC., priority 2005, published 2009).

Molecular target: T1, ileal Na+/bile acid cotransporter (Homo sapiens, UniProt Q12908)
T1 sequence (Q12908 1-348): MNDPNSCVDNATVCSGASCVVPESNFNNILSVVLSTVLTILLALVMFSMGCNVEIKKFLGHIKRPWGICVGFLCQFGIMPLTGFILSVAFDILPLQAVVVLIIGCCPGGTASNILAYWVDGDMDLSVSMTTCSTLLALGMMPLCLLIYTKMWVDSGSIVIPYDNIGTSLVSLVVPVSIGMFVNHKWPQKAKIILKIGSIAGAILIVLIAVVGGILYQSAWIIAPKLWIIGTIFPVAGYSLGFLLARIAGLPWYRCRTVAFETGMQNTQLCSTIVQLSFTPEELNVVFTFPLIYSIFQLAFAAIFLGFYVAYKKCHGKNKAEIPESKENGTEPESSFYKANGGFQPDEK
Conditions: in vivo

Q: With `O=C1[C@H](CC[C@H](O)c2ccc(F)cc2)[C@@H](c2ccc(O)cc2)N1c1ccc(F)cc1` [ezetimibe, (3R,4S)-1-(4-fluorophenyl)-3-[(3S)-3-(4-fluorophenyl)-3-hydroxypropyl]-4-(4-hydroxyphenyl)azetidin-2-one] as the molecule, how does the “inhibition of the absorption of taurocholic acid” value read?
A: The value was “does not inhibit the absorption of taurocholic acid”.
